Experimental data published in patent US8410302B2, “Methoxyimino compounds and fungicide composition comprising same” (Kyung Nong Corporation, priority 2007, dated 2013).

Legend:
[1] = tested on: Pyricularia oryzae Carvara KA301; test: whole plant or invertebrate; format: in vivo; details: Pyricularia oryzae, read-out: RCB control value (C.V.)
Rhizoctonia solani AG-1 = test: Fungicidal activity against rice sheath blight (RSB) disease, control value; details: Rhizoctonia solani, AG1, in Oryza sativa, read-out: RSB control value (C.V.)
Puccinia recondita = test: Fungicidal activity against wheat leaf rust (WLR) disease, control value; format: in vivo; details: Puccinia recondita, read-out: WLR control value (C.V.)
Erysiphae graminis = test: Fungicidal activity against barley powdery mildew (BPM) disease, control value; format: in vivo; details: 168 h, read-out: BPM control value (C.V.)
Botrytis cinerae = test: Fungicidal activity against cucumber gray mold rot (CGM) disease, control value; format: in vivo; details: Botrytis; 100 ppm; read-out: CGM control value (C.V.)
Phytophthora infestans = test: whole plant or invertebrate; format: in vivo; details: Phytophthora infestans, in Solanum lycopersicum, read-out: TLB control value (C.V.)

Row | SMILES | pest or weed control at 2 ppm [1] | pest or weed control at 10 ppm [1] | pest or weed control at 50 ppm [1] | pest or weed control at 100 ppm [1] | pest or weed control at 2 ppm (Rhizoctonia solani AG-1) | pest or weed control at 10 ppm (Rhizoctonia solani AG-1) | pest or weed control at 50 ppm (Rhizoctonia solani AG-1) | pest or weed control at 100 ppm (Rhizoctonia solani AG-1) | pest or weed control at 2 ppm (Puccinia recondita) | pest or weed control at 10 ppm (Puccinia recondita) | pest or weed control at 50 ppm (Puccinia recondita) | pest or weed control at 100 ppm (Puccinia recondita) | pest or weed control at 2 ppm (Erysiphae graminis) | pest or weed control at 10 ppm (Erysiphae graminis) | pest or weed control at 50 ppm (Erysiphae graminis) | pest or weed control at 100 ppm (Erysiphae graminis) | pest or weed control at 100 ppm (Botrytis cinerae) | pest or weed control at 2 ppm (Phytophthora infestans) | pest or weed control at 10 ppm (Phytophthora infestans) | pest or weed control at 50 ppm (Phytophthora infestans) | also measured
1 | CNC(=O)/C(=N/OC)c1ccccc1COc1ccc(C=C(Br)Br)cc1Br [Example 78, (E)-2-(2-((2-bromo-4-(2,2-dibromovinyl)phenoxy)methyl)phenyl)-2-methoxyimino-N-methylacetamide] | 40% | 90% | 98% | 100% | 65% | 98% | 100% | 100% | 95% | 98% | 100% | 100% | 90% | 100% | 100% | 100% | 40% | 70% | 90% | 98% | pest or weed control at 100 ppm (Phytophthora infestans): 100%
2 | CO/N=C(/C(=O)OC)c1ccccc1COc1ccc(F)cc1C=C(Br)Br [Example 79, methyl-(E)-2-(2-((2-(2,2-dibromovinyl)-4-fluorophenoxy)methyl)phenyl)-2-methoxyiminoacetate] | 80% | 98% | 100% | 100% | 85% | 98% | 100% | 100% | 95% | 100% | 100% | 100% | 90% | 100% | 100% | 100% | 40% | 70% | 90% | 98% | pest or weed control at 100 ppm (Phytophthora infestans): 100%
3 | CNC(=O)/C(=N/OC)c1ccccc1COc1ccc(F)cc1C=C(Br)Br [Example 80, (E)-2-(2-((2-(2,2-dibromovinyl)-4-fluorophenoxy)methyl)phenyl)-2-methoxyimino-N-methylacetamide] | 35% | 90% | 100% | 100% | 65% | 98% | 100% | 100% | 95% | 100% | 100% | 100% | 90% | 100% | 100% | 100% | 55% | 70% | 90% | 98% | pest or weed control at 100 ppm (Phytophthora infestans): 100%
4 | CO/N=C(/C(=O)OC)c1ccccc1COc1ccc(C=C(Br)Br)c(Cl)c1 [Example 81, methyl-(E)-2-(2-((4-(2,2-dibromovinyl)-3-chlorophenoxy)methyl)phenyl)-2-methoxyiminoacetate] | 70% | 90% | 100% | 100% | 55% | 98% | 100% | 100% | 95% | 100% | 100% | 100% | 98% | 100% | 100% | 100% | 60% | 60% | 90% | 98% | pest or weed control at 100 ppm (Phytophthora infestans): 100%
